Laboratory results from ChEMBL document CHEMBL1140644, “New modifications to the area of pyrazole-naphthyl urea based p38 MAP kinase inhibitors that bind to the adenine/ATP site” (Bioorg Med Chem Lett, 2007).
pIC50: −log10 of the molar value. Calls of active or inactive are those of the source. The rule behind the calls is not given here.

Experiments:
Blood = assay: Inhibition of LPS-induced TNFalpha production in human whole blood; type: functional, tissue-based
THP-1 = assay: Inhibition of LPS-induced TNFalpha production in THP1 cells; type: functional, cell-based; settings: Homo sapiens
Mus musculus [1] = assay: Inhibition of LPS-induced TNFalpha production in mouse at 3 mg/kg after 1 hr; type: functional
Homo sapiens = organism: Homo sapiens; assay: Protein binding in human plasma by equilibrium dialysis; settings: read-out: PPB
Mus musculus [2] = assay: Inhibition of LPS-induced TNFalpha production in mouse at 10 mg/kg after 1 hr; type: functional
[3] = molecular target: Proto-oncogene tyrosine-protein kinase Src (Homo sapiens, UniProt P12931); assay: Inhibition of Src
Chain of Proto-oncogene tyrosine-protein kinase Src (P12931 2-536 limits assumed): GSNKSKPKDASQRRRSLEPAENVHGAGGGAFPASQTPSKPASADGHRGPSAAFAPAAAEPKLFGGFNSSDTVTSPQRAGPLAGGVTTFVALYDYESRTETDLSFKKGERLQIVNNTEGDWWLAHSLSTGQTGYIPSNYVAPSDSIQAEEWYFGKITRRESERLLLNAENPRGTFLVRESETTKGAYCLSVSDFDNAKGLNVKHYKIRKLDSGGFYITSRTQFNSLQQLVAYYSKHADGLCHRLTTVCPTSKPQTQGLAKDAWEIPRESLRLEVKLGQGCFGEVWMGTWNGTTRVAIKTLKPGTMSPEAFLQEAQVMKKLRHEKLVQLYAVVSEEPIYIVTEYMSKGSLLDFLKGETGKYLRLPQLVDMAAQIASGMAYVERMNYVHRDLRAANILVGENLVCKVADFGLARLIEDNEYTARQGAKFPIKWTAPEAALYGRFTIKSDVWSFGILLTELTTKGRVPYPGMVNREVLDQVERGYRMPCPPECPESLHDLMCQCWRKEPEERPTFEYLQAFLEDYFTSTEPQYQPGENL

[4] = Lipophilicity, log D at pH 7.4; type: physicochemical; settings: buffer
[5] = molecular target: RAF proto-oncogene serine/threonine-protein kinase (Homo sapiens, UniProt P04049); assay: Inhibition of cRaf
Chain of RAF proto-oncogene serine/threonine-protein kinase (P04049 whole entry): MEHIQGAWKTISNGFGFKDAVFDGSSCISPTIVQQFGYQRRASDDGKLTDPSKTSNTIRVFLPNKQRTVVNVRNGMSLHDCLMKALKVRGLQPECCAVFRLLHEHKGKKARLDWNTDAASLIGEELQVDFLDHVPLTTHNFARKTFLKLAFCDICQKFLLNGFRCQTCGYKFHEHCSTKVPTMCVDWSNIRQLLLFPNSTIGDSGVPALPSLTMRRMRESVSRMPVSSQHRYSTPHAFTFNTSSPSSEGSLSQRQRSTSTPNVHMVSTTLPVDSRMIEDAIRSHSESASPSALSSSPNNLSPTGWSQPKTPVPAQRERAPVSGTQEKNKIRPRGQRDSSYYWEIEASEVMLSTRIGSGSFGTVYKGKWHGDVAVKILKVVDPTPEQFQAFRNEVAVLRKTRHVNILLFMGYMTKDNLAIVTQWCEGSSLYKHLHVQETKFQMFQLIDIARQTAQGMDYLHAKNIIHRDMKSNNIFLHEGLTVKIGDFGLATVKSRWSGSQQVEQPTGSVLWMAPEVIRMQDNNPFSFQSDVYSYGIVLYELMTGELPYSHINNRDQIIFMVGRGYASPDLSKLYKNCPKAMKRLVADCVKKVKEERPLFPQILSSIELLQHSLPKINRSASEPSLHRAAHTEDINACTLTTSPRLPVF

[6] = molecular target: Tyrosine-protein kinase ABL1 (Homo sapiens, UniProt P00519); assay: Inhibition of Abl
Chain of Tyrosine-protein kinase ABL1 (P00519 whole entry): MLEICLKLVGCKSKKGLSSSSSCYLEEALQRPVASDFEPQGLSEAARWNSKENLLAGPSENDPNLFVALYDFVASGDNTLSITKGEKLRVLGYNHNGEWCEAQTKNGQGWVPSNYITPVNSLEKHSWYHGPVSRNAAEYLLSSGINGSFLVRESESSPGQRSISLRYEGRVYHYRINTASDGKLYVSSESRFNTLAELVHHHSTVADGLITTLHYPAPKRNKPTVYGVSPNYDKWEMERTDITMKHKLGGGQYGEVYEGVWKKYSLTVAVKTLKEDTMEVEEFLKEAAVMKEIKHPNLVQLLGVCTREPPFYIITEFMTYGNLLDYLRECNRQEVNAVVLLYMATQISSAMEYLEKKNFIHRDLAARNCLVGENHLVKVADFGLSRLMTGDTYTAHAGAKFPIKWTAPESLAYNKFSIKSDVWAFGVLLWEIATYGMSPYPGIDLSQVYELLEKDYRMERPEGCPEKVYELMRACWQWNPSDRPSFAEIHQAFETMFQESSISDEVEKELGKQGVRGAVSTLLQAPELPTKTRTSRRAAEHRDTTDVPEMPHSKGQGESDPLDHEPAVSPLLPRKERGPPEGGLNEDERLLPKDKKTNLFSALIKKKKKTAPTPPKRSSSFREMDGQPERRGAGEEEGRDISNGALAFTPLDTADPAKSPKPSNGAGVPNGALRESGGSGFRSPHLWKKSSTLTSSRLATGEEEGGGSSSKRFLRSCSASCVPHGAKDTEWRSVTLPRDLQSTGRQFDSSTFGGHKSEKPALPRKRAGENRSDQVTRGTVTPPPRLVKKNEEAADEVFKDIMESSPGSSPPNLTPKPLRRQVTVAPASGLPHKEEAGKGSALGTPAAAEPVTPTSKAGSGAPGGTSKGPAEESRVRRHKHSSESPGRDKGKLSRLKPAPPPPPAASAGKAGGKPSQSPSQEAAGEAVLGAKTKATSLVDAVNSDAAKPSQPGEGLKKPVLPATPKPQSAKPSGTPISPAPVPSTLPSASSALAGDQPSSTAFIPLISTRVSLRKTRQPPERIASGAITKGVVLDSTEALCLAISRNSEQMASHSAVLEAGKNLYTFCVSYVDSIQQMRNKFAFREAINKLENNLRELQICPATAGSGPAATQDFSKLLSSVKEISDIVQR

[7] = molecular target: Mitogen-activated protein kinase 9 (Homo sapiens, UniProt P45984); assay: Inhibition of Jnk2
Chain of Mitogen-activated protein kinase 9 (P45984 whole entry): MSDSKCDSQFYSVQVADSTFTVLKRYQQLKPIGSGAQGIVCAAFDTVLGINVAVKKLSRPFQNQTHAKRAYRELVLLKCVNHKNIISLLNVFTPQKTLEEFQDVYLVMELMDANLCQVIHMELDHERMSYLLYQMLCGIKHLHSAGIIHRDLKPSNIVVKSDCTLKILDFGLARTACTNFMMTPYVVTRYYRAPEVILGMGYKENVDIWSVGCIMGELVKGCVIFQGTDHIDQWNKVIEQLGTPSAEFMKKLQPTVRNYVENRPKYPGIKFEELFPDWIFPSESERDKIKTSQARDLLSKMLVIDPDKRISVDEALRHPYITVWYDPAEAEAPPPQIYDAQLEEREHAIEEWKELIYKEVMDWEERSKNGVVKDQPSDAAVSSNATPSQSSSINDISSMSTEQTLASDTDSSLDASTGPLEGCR

[8] = molecular target: Tyrosine-protein kinase Lyn (Homo sapiens, UniProt P07948); assay: Inhibition of Lyn
Chain of Tyrosine-protein kinase Lyn (P07948 whole entry): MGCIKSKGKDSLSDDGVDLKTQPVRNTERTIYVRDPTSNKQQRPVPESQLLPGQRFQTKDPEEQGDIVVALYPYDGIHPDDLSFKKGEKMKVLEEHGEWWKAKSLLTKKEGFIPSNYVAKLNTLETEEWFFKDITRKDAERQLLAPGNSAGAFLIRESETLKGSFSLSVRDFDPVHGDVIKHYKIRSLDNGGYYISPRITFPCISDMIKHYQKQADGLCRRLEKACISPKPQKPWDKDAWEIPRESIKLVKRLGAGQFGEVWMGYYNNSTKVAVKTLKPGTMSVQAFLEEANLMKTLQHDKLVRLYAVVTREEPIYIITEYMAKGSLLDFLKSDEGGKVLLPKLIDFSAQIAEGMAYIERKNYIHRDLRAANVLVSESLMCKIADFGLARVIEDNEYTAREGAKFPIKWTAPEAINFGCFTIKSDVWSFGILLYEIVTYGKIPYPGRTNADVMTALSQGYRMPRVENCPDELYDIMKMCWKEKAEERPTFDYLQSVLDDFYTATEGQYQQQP

Row | pIC50 (Blood) | pIC50 (THP-1) | SMILES | other results
1 | < 4.82 | 5.84 | Cc1ccc(-n2nc(C(C)(C)C)cc2NC(=O)Nc2ccc(-c3ccccc3)c3ccccc23)cc1 | –
2 | < 4.82 | 6.33 | Cc1ccc(-n2nc(C(C)(C)C)cc2NC(=O)Nc2ccc(-c3ccc(N4CCOCC4)cc3)c3ccccc23)cc1 | –
3 | 5.19 | 7.15 | Cc1ccc(-n2nc(C(C)(C)C)cc2NC(=O)Nc2ccc(-c3ccc(CN4CCOCC4)o3)c3ccccc23)cc1 | –
4 | < 4.82 | 5.87 | Cc1ccc(-n2nc(C(C)(C)C)cc2NC(=O)Nc2ccc(-c3cccc(N4CCOCC4)c3)c3ccccc23)cc1 | –
5 | 5.96 | 7.44 | Cc1ccc(-n2nc(C(C)(C)C)cc2NC(=O)Nc2ccc(-c3ccc(CN4CCOCC4)cc3)c3ccccc23)cc1 | –
6 | 5.44 | 7.34 | Cc1ccc(-n2nc(C(C)(C)C)cc2NC(=O)Nc2ccc(-c3ccc(CN4CCN(C)CC4)cc3)c3ccccc23)cc1 | –
7 | < 4.82 | 6.49 | Cc1ccc(-n2nc(C(C)(C)C)cc2NC(=O)Nc2cccc3ccccc23)cc1 | –
8 | 5.04 | 6.98 | Cc1ccc(-n2nc(C(C)(C)C)cc2NC(=O)Nc2ccc(-c3ccc(CN(C)C)cc3)c3ccccc23)cc1 | –
9 | 5.41 | 7.25 | Cc1ccc(-n2nc(C(C)(C)C)cc2NC(=O)Nc2ccc(-c3cccc(CN4CCOCC4)c3)c3ccccc23)cc1 | –
10 | – | 6.41 | Cc1ccc(-n2nc(C(C)(C)C)cc2NC(=O)Nc2ccc(-c3ccco3)c3ccccc23)cc1 | –
11 | 7.05 | 7.96 | Cn1cc(-n2nc(C(C)(C)C)cc2NC(=O)Nc2ccc(-c3ccc(CN4CCOCC4)nc3)c3ccccc23)cn1 | inhibition in vivo at 3 mg/kg (Mus musculus [1]): 73%
12 | 6.80 | 7.85 | Cc1ncc(-n2nc(C(C)(C)C)cc2NC(=O)Nc2ccc(-c3ccc(CN4CCOCC4)nc3)c3ccccc23)cn1 | fraction unbound (Homo sapiens): < 0.03; inhibition in vivo at 3 mg/kg (Mus musculus [1]): 85%; inhibition in vivo at 10 mg/kg (Mus musculus [2]): 95%
13 | 6.70 | 7.96 | Cc1ccc(-n2nc(C(C)(C)C)cc2NC(=O)Nc2ccc(-c3ccc(CN4CCOCC4)nc3)c3ccccc23)cn1 | inhibition in vivo at 3 mg/kg (Mus musculus [1]): 50%; inhibition in vivo at 10 mg/kg (Mus musculus [2]): 86%
14 | 5.77 | 7.25 | Cc1ccc(-n2nc(C(C)(C)C)cc2NC(=O)Nc2ccc(-c3ccc(CCN4CCOCC4)cc3)c3ccccc23)cc1 | –
15 | 6.64 | 8.05 | Cc1ccc(-n2nc(C(C)(C)C)cc2NC(=O)Nc2ccc(-c3ccc(CN4CCOCC4)nc3)c3ccccc23)cc1 | pIC50 [3]: 6.00; logD [4]: 5.2; pIC50 [5]: 6.40; pIC50 [6]: 6.00; pIC50 [7]: 8.70; pIC50 [8]: 6.00; Activity (Mus musculus [1]): inactive; inhibition in vivo at 10 mg/kg (Mus musculus [2]): 74%
16 | 6.23 | 7.59 | Cc1ccc(-n2nc(C(C)(C)C)cc2NC(=O)Nc2ccc(-c3ccc(CN4CCOCC4)cn3)c3ccccc23)cc1 | logD [4]: 5.2
17 | – | – | Cc1ccc(-n2nc(C(C)(C)C)cc2NC(=O)Nc2ccc(OCCN3CCOCC3)c3ccccc23)cc1 [DORAMAPIMOD] | logD [4]: 4.3; inhibition in vivo at 10 mg/kg (Mus musculus [2]): 63%
18 | 6.02 | 7.49 | Cn1nc(C(C)(C)C)cc1NC(=O)Nc1ccc(-c2ccc(CN3CCOCC3)nc2)c2ccccc12 | Activity (Mus musculus [2]): inactive
